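Assay format: 96-well plates, 48-hour exposure. At the GI50, growth is halved. TGI: concentration producing complete growth inhibition.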
How the values were obtained:
Assay in all cases: NCI anticancer screen, dose series, 48 h
CCRF-CEM leukemia = tested on: CCRF-CEM leukemia
DU-145 prostate = tested on: DU-145 prostate
HOP-92 NSCLC = tested on: HOP-92 NSCLC
HS 578T breast = tested on: HS 578T breast
M14 melanoma = tested on: M14 melanoma
MOLT-4 leukemia = tested on: MOLT-4 leukemia
NCI-H23 lung = tested on: NCI-H23 lung
OVCAR-3 ovarian = tested on: OVCAR-3 ovarian
PC-3 prostate = tested on: PC-3 prostate
UACC-257 melanoma = tested on: UACC-257 melanoma

Compound	TGI (CCRF-CEM leukemia) [µM]	TGI (DU-145 prostate) [µM]	TGI (HOP-92 NSCLC) [µM]	TGI (HS 578T breast) [µM]	TGI (M14 melanoma) [µM]	TGI (MOLT-4 leukemia) [µM]	TGI (NCI-H23 lung) [µM]	TGI (OVCAR-3 ovarian) [µM]	TGI (PC-3 prostate) [µM]	TGI (UACC-257 melanoma) [µM]	GI50 (CCRF-CEM leukemia) [µM]	GI50 (DU-145 prostate) [µM]	GI50 (HOP-92 NSCLC) [µM]	GI50 (HS 578T breast) [µM]	GI50 (M14 melanoma) [µM]	GI50 (MOLT-4 leukemia) [µM]	GI50 (NCI-H23 lung) [µM]	GI50 (OVCAR-3 ovarian) [µM]	GI50 (PC-3 prostate) [µM]	GI50 (UACC-257 melanoma) [µM]
Cc1ccc(OCC2OC(n3cnc4nc(N)nc(Cl)c43)CC2Oc2ccc(C)cc2)cc1 (stereo not given)	> 100	35.9	70	45.6	41.2	52.7	36.9	41	44.6	> 100	–	–	–	–	–	–	–	–	–	–
OC1(c2ccccc2)CCN(Cc2c[nH]c3ccccc23)CC1	> 100	> 100	> 100	> 100	35	> 100	> 100	> 100	> 100	40.4	–	–	–	–	–	–	–	–	–	–
COc1ccc(CC(N)c2ccc(OC)cc2)cc1 (stereo not given)	> 100	> 100	> 100	> 100	> 100	> 100	> 100	> 100	> 100	> 100	–	–	–	–	–	–	–	–	–	–
C=C/C(C)=C\CC1[C@](C)(O)CC[C@H]2C(C)(C)C(=O)CC[C@]12C (stereo not given in full)	> 100	> 100	> 100	> 100	> 100	79.3	> 100	> 100	> 100	> 100	–	–	–	–	–	–	–	–	–	–
CC1(C)N/C(=C\C=O)C(C)(C)N1O	> 100	> 100	> 100	> 100	> 100	> 100	> 100	> 100	> 100	> 100	–	–	–	–	–	–	–	–	–	–
Cc1cc(F)ccc1S(=O)(=O)Nc1cc(-c2c(O)ccc3ccccc23)c(O)c2ccccc12	16.6	14.4	2.82	10.2	5.4	14	13.3	10.3	5.12	9.33	3.26	4.09	0.292	2.6	2.06	3.33	2.77	2.67	1.37	2.6
COc1ccc(C2=Nc3cc(C)c(C)cc3NC(c3ccccc3)C2)cc1 (stereo not given)	> 100	> 100	> 100	> 100	> 100	> 100	> 100	> 100	> 100	> 100	–	–	–	–	–	–	–	–	–	–
COc1cccc(CCN2CCN(CCCc3ccccc3)CC2)c1	> 100	> 100	64.4	> 100	60.6	> 100	> 100	> 100	> 100	> 100	–	–	–	–	–	–	–	–	–	–
OCC(O)C(O)C(O)C(O)c1nc2ccc(Cl)cc2[nH]1 (stereo not given)	> 100	> 100	> 100	> 100	> 100	> 100	> 100	> 100	> 100	> 100	–	–	–	–	–	–	–	–	–	–
CO/N=C1\CC(NC(=O)CNC(=O)OC(C)(C)C)c2ccsc21 (stereo not given)	> 100	> 100	> 100	> 100	> 100	> 100	> 100	> 100	> 100	> 100	–	–	–	–	–	–	–	–	–	–
CC(C)=NN/C(=N\S(=O)(=O)c1ccc(Oc2cccc(Cl)c2C#N)cc1)Nc1ccc(Cl)cc1	> 100	> 100	> 100	> 100	> 100	> 100	> 100	> 100	> 100	> 100	–	–	–	–	–	–	–	–	–	–
COC(=O)C1CCC(=S)N1C(=O)c1ccccc1 (stereo not given)	> 100	> 100	> 100	> 100	> 100	90.3	> 100	> 100	> 100	> 100	–	–	–	–	–	–	–	–	–	–
CC(C)CNc1nc2ncnc(N)c2[nH]1	> 100	> 100	> 100	> 100	> 100	> 100	> 100	> 100	> 100	> 100	–	–	–	–	–	–	–	–	–	–
ClCCCc1ccccc1C1=NCCc2ccccc21	> 100	> 100	> 100	> 100	> 100	> 100	> 100	> 100	> 100	> 100	–	–	–	–	–	–	–	–	–	–
O=S(=O)(c1ccc(NC2=NC(c3ccc(O)cc3)(c3ccccc3O)c3ccccc32)cc1)c1ccc(NC2=NC(c3ccc(O)cc3)(c3ccccc3O)c3ccccc32)cc1 (stereo not given)	> 100	> 35.4	> 70.6	> 100	> 29.2	60.1	8.01	> 100	> 58.7	> 47.9	–	–	–	–	–	–	–	–	–	–
O=C1NC(=O)C(C(CC(=O)c2ccc([N+](=O)[O-])cc2)c2ccccc2)C(=O)N1 (stereo not given)	> 100	> 100	> 100	31.7	> 100	> 100	95.1	> 100	> 100	> 100	–	–	–	–	–	–	–	–	–	–
CCCCCCCC/C=C\CCCCCCC/C=C1\C[C@](/C=C/C(=O)OC)(CO)OC1=O	> 23	24.6	21.1	4.69	4.34	10.6	16.1	16.6	6.96	26.6	–	–	–	–	–	–	–	–	–	–
CSCSSC	> 100	> 100	> 100	> 100	> 100	90.3	> 100	> 100	> 100	> 100	–	–	–	–	–	–	–	–	–	–
CN(C)c1nc(N)nc(CS)n1	98.9	> 100	> 100	> 100	> 100	> 100	> 100	> 100	> 100	> 100	–	–	–	–	–	–	–	–	–	–
Cc1cccc(Nc2nn3c(=O)c4c5c(sc4nc3s2)CCCC5)c1	> 100	> 100	> 100	> 100	> 100	> 100	57.1	> 100	> 100	> 100	–	–	–	–	–	–	–	–	–	–
CN(C)c1ccc(/C(F)=C(F)/C(F)=C(F)/C(F)=C(\F)c2ccc(Br)cc2)cc1	> 78.8	> 63.7	> 100	52.6	> 69.7	> 79.6	63.4	> 60.5	> 52	> 100	–	–	–	–	–	–	–	–	–	–
C=C(C(N)=O)c1ccc([N+](=O)[O-])o1	18.9	23.4	19.5	77.1	8.65	18.8	20.6	22.4	76	21.7	–	–	–	–	–	–	–	–	–	–
CC(=O)NCCC1CN(C(=O)/C=C/I)c2ccccc21 (stereo not given)	> 38.6	29.2	4.43	37	8.5	> 64.6	25.6	12.6	21.1	20.4	–	–	–	–	–	–	–	–	–	–
Cc1ccc([S@](=O)c2occc2C=O)cc1	4.4	33.1	7.78	36.1	20.7	4.16	30.4	6.41	10.4	26.3	–	–	–	–	–	–	–	–	–	–
CC1C(=O)N(c2ccccc2)NC12CCCc1ccccc12 (stereo not given)	> 100	> 100	> 100	> 100	> 100	> 100	> 100	> 100	> 100	> 100	–	–	–	–	–	–	–	–	–	–
OCCO/N=C1\C(c2c(O)[nH]c3ccccc23)=Nc2ccccc21	> 100	> 100	> 100	> 100	> 100	> 100	> 100	> 100	> 100	> 100	–	–	–	–	–	–	–	–	–	–
COc1cc([C@@H]2c3cc4c(cc3[C@@H](c3c(O)cc(O)c5c3O[C@H](c3ccc(O)c(O)c3)[C@@H](O)C5)[C@H]3COC(=O)[C@H]23)OCO4)cc(OC)c1OC	> 100	3.22	> 100	> 100	> 100	> 100	> 100	3.22	3.38	3.81	–	–	–	–	–	–	–	–	–	–
N#CC1(C#N)NC(c2cccs2)C(C#N)(C#N)NC1c1cccs1 (stereo not given)	64.3	> 100	78.7	> 100	> 100	60.2	> 100	67.8	> 100	> 100	–	–	–	–	–	–	–	–	–	–
CCCC(=O)NC(Nc1ccc(S(=O)(=O)Nc2cc(C)on2)cc1)(C(=O)OCC)C(F)(F)F (stereo not given)	> 100	> 100	> 100	> 100	> 100	> 100	> 100	> 100	> 100	> 100	–	–	–	–	–	–	–	–	–	–

— PubChem BioAssay (NCI)
